According to patent publication US20220009914A1, “Analogs of Nitrofuran Antibiotics to Combat Resistance” (The Trustees of Indiana University, priority 2020, published 2022):

How the values were obtained:
[1] = tested on: Enterobacter cloacae strain CDC 442-68 (ATCC #13047); assay: bacterial proliferation assay, E. cloacae; type: cell-based; details: ATCC13047, read-out: Bacterial Proliferation EC50 E. cloacae
Protocol: (§1) All compounds were evaluated for inhibiting the proliferation of E. coli and each of the ESKAPE bacteria. Results presented represent the averages of EC50 values obtained from at least four replicates. Evaluating compounds for inhibition of bacterial cell proliferation.
(§2) Growth Media: E. coli were grown with LB medium and all ESKAPE bacteria were grown in Brain Heart Infusion (BHI) medium (Becton, Dickinson and Company), with all liquid cultures supplemented with 25 mg/L Ca^2+ and 12.5 mg/L Mg^2+ to mimic physiological free concentrations of these cations. A 10 mg/mL Ca^2+ stock solution was prepared by dissolving 1.84 g of CaCl2.2H2O in 50 mL of deionized water, and a 10 mg/mL Mg^2+ stock solution was prepared by dissolving 4.18 g of MgCl2.6H2O in 50 mL deionized water—filter sterilized using 0.2 μm cellulose-acetate filters. 2.5 mL of the sterile 10 mg/mL Ca^2+ stock and 1.25 mL of the sterile 10 mg/mL Mg^2+ stock solutions were added per 1 L of autoclaved LB or BHI media to obtain 25 mg/L Ca^2+ and 12.5 mg/L Mg^2+ ions, respectively.
General Assay Protocol: Stock bacterial cultures were streaked onto LB or BHI agar plates and grown overnight at 37° C. Fresh aliquots of cation supplemented media were inoculated with single bacterial colonies and the cultures were grown overnight at 37° C. with shaking (240 rpm). The following morning, cultures were diluted 10-fold into fresh media and grown at 37° C. until bacteria had reached mid-log phase growth (OD600˜0.4-0.6). The cultures were then diluted into fresh media to achieve final OD600 readings of 0.017. Aliquots of these diluted cultures (30 μL) were added to clear, flat-bottom 384-well polystyrene plates that were previously stamped with 0.5 μL of test compounds in 20 μL of media (yielding initial OD600=0.01 bacterial cultures). All compounds were tested in dose-response with concentration ranges during the proliferation assays from 100 μM to 46 nM (3-fold dilution series). A second set of baseline control plates were prepared analogously, but without any bacteria added, to correct for possible compound absorbance and/or precipitation. […] Plates were then read at 600 nm using a Molecular Devices SpectraMax Plus384 microplate reader. […] Results presented represent the averages of EC50 values obtained from at least four replicates.
Evaluating analogs for inhibiting the growth of E. coli and the ESKAPE bacteria. Analogs were initially tested for antibacterial efficacy against representative strains of antibiotic-sensitive E. coli and the ESKAPE bacteria. To determine compound efficacy, bacterial proliferation assays were carried out in liquid media culture supplemented with physiological concentrations of free calcium and magnesium cations. For these assays, bacterial cultures (OD600=0.01) were exposed to test compounds in 8-point, 3-fold dilution series (100 μM to 46 nM concentration range), in 384-well plates. After addition of compounds to cultures, the plates were sealed with Breathe-Easy gas permeable membranes and allowed to grow to mid-log phase (OD600˜0.4-0.6), whereupon final OD600 readings were taken to assess for bacterial growth and inhibition.

[2] = tested on: E. coli and the ESKAPE bacteria; assay: bacterial proliferation assays, whole panel (results in words); type: cell-based
Protocol: as §1, §2
General Assay Protocol: Stock bacterial cultures were streaked onto LB or BHI agar plates and grown overnight at 37° C. Fresh aliquots of cation supplemented media were inoculated with single bacterial colonies and the cultures were grown overnight at 37° C. with shaking (240 rpm). […] The cultures were then diluted into fresh media to achieve final OD600 readings of 0.017. […] A second set of baseline control plates were prepared analogously, but without any bacteria added, to correct for possible compound absorbance and/or precipitation. […] Plates were then read at 600 nm using a Molecular Devices SpectraMax Plus384 microplate reader. […]
Evaluating analogs for inhibiting the growth of E. coli and the ESKAPE bacteria. […] After addition of compounds to cultures, the plates were sealed with Breathe-Easy gas permeable membranes and allowed to grow to mid-log phase (OD600˜0.4-0.6), whereupon final OD600 readings were taken to assess for bacterial growth and inhibition.

[3] = tested on: Klebsiella pneumoniae strain NCTC 9633 (ATCC #13883); details: previously found; read-out: EC50 proliferation of K. pneumoniae; cited from earlier work
[4] = tested on: Acinetobacter baumannii strain 2208 (ATCC 19606); details: previously found; read-out: EC50 proliferation of A. baumannii; cited from earlier work
E. coli GroEL/ES = molecular target: T1, E. coli GroEL/ES (Escherichia coli, UniProt P0A6F5); details: read-out: IC50 GroEL/ES-mediated refolding of denatured rhodanese; previously found; cited from earlier work
T1 construct: made in house; host or cells: GroEL in NEB 5-alpha E. coli; GroES in E. coli BL21 (DE3)
T1 sequence (P0A6F5 2-548): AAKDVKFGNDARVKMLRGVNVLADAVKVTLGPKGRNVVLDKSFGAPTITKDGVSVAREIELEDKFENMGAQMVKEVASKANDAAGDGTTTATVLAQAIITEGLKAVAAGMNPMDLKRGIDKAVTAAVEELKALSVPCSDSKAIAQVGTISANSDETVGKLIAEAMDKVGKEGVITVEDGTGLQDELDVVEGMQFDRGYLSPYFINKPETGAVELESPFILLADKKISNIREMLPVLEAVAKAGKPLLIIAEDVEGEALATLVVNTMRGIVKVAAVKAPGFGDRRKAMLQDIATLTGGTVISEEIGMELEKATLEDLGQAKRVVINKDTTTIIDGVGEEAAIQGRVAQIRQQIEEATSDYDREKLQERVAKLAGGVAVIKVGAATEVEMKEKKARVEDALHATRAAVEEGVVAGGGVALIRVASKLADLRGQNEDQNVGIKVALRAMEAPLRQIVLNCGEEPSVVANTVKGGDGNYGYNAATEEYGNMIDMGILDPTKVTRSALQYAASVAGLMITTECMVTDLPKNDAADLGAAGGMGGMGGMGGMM

NEB 5-alpha E. coli = assay: microbe, parasite or virus in culture; type: cell-based, Escherichia coli; details: for resistance of the maximally-resistant strain to its inhibitor after passaging without compound: 4×12 h serial passages without test compounds, then 24 h proliferation assay; for EC50: Escherichia coli, read-out: EC50 plateau after intermediate resistance
Protocol: Evaluating the ability of E. coli to generate resistance to lead inhibitors. […] NEB 5-alpha E. coli bacteria were streaked onto an LB agar plate and grown overnight at 37° C. […] The overnight cultures were then sub-cultured (10× dilution) into fresh media solutions and grown at 37° C. to mid-log phase, then diluted into fresh media to achieve two separate cultures with final OD600 readings of 0.01. […] Test compounds were evaluated in duplicate with concentration ranges during the resistance assay from 100 μM to 48.8 nM, 2-fold dilution series. […] OD600 readings were taken at the 24 h time point to monitor for bacterial growth. A second baseline control plate was prepared analogously, without any bacteria added, to correct for possible compound absorbance and/or precipitation. For inoculations on subsequent days, bacteria from the wells with the highest test compound concentration where the OD600 was >0.2, were sub-cultured in 5 mL of fresh media at 37° C. until mid-log phase growth was reached. Separate cultures were maintained from this point forward for each of the compound replicates—i.e. 6 cultures continually propagated. The bacteria were then diluted into fresh media to OD600 of 0.01 and the bacteria were propagated again as described above.

[5] = tested on: FHs 74 Int small intestine cells; assay: in vitro; details: for CC50: human, 48 h
Protocol: (§3) Evaluating compound effects on the viability of human colon and small intestine cells. […] Evaluating compound effects on the viability of human colon and small intestine cells. Evaluation of compound cytotoxicities to FHC colon and FHs 74 Int small intestine cells were performed using Alamar Blue-based viability assays. […] FHs 74 Int cells were maintained in Hybri-care medium (ATCC 46-X) supplemented with 30 ng/mL recombinant epidermal growth factor (EGF) and 10% FBS (Midwest Scientific, USDAFBS).

[6] = tested on: nifuroxazide resistant E. coli; type: cell-based, Escherichia coli
[7] = tested on: nitrofurantoin resistant E. coli; type: cell-based, Escherichia coli
FHC colon cells = assay: in vitro; details: for CC50: human, 48 h
Protocol: as §3

[8] = tested on: compound 17 resistant E. coli
in vitro [9] = details: human
Protocol: as §3

in vitro [10] = details: human; remark: listed apart in the source
Protocol: as §3

[11] = E. coli and the ESKAPE pathogens
[12] = CC50 intestine cells over EC50 E. coli proliferation
[13] = CC50 colon cells over EC50 E. coli proliferation

Structure (SMILES) | EC50 [1] [µM] | SI (CC50/EC50) Intestine [5] | cytotoxicity to human cells in words [5] | CC50 [5] [µM] | SI (CC50/EC50) Colon (FHC colon cells) | CC50 (FHC colon cells) [µM] | also measured
O=Cc1ccc(O)c2ncccc12 [Compound 40, reference compound] | 24 | – | – | – | – | – | antibacterial efficacy in words [2, 11]: potent inhibitors of nearly all the bacteria (excluding P. aeruginosa)
COc1ccc(C(=O)N/N=C/c2ccc(O)c3ncccc23)cc1 [Compound 1, N′-((8-hydroxyquinolin-5-yl)methylene)-4-methoxybenzohydrazide] | 100 | – | – | – | – | – | EC50 [3]: 95 µM; EC50 [4]: 32 µM; IC50 (E. coli GroEL/ES): 18 µM
O=C(N/N=C/c1ccc([N+](=O)[O-])o1)c1ccc(Cl)s1 [Compound 17, 5-chloro-N′-((5-nitrofuran-2-yl)methylene)thiophene-2-carbohydrazide] | 49 | 190 | low to no cytotoxicity | 85 | 119 | 53 | resistance of the maximally-resistant strain to its inhibitor after passaging without compound (NEB 5-alpha E. coli): still resistant; EC50 (NEB 5-alpha E. coli): 20 to 40 µM; response of nifuroxazide-resistant strains to the other inhibitor [6]: cross-resistant; response of nitrofurantoin-resistant strains to the other inhibitor [7]: still sensitive
O=Cc1ccc([N+](=O)[O-])o1 [Compound 41, reference compound] | 13 | – | – | – | – | – | antibacterial efficacy in words [2, 11]: potent inhibitors of nearly all the bacteria (excluding P. aeruginosa)
O=C(N/N=C/c1ccc([N+](=O)[O-])o1)c1cccs1 [Compound 16, N′-((5-nitrofuran-2-yl)methylene)thiophene-2-carbohydrazide] | 40 | 168 | low to no cytotoxicity | 71 | 198 | 83 | –
COc1ccc(C(=O)N/N=C/c2ccc([N+](=O)[O-])o2)cc1 [Compound 20, 4-methoxy-N′-((5-nitrofuran-2-yl)methylene)benzohydrazide] | > 100 | 40 | low to no cytotoxicity | 75 | >53 | > 100 | –
O=C1CN(/N=C/c2ccc([N+](=O)[O-])o2)C(=O)N1 [Nitrofurantoin, reference compound] | 36 | – | low to no cytotoxicity | > 100 | – | > 100 | resistance of the maximally-resistant strain to its inhibitor after passaging without compound (NEB 5-alpha E. coli): still resistant; EC50 (NEB 5-alpha E. coli): 20 to 40 µM; SI (CC50/EC50) Intestine [5, 12]: >146; 17-resistant strains susceptible to the other inhibitor [8]: not; response of nifuroxazide-resistant strains to the other inhibitor [6]: cross-resistant; SI (CC50/EC50) Colon (FHC colon cells; [13]): >146
CN(C)c1ccc(C(=O)N/N=C/c2ccc([N+](=O)[O-])o2)cc1 [Compound 21, 4-(dimethylamino)-N′-((5-nitrofuran-2-yl)methylene)benzohydrazide] | > 100 | 9.3 | – | 93 | >10 | > 100 | antibacterial efficacy in words ([2]; Gram-positive E. faecium and S. aureus): less effective (or inactive)
O=C(N/N=C/c1ccc([N+](=O)[O-])o1)c1ccncc1 [Compound 19, N′-((5-nitrofuran-2-yl)methylene)isonicotinohydrazide] | 73 | 38 | – | 90 | 26 | 61 | –
O=C(N/N=C/c1ccc([N+](=O)[O-])o1)c1ccc(O)cc1 [Nifuroxazide, reference compound] | 54 | – | low to no cytotoxicity | 79 | – | 61 | resistance of the maximally-resistant strain to its inhibitor after passaging without compound (NEB 5-alpha E. coli): still resistant; EC50 (NEB 5-alpha E. coli): 20 to 40 µM; SI (CC50/EC50) Intestine [5, 12]: 91; 17-resistant strains susceptible to the other inhibitor [8]: susceptible; response of nitrofurantoin-resistant strains to the other inhibitor [7]: still sensitive; SI (CC50/EC50) Colon (FHC colon cells; [13]): 70
O=C(N/N=C/c1ccc([N+](=O)[O-])o1)c1ccc(NS(=O)(=O)c2ccc(Br)cc2)cc1 [Compound 27, 4-bromo-N-(4-(2-((5-nitrofuran-2-yl)methylene)hydrazine-1-carbonyl)phenyl)benzenesulfonamide] | > 100 | – | – | – | – | – | CC50 at 48 h (in vitro [9]): > 100 µM; CC50 at 48 h (in vitro [10]): 90 µM
O=C(N/N=C/c1ccc([N+](=O)[O-])o1)c1ccccc1 [Compound 18, N′-((5-nitrofuran-2-yl)methylene)benzohydrazide] | > 100 | 45 | – | 94 | >48 | > 100 | –
